Measurements: ChEMBL document CHEMBL6092142, “Discovery and preclinical profile of YK-2168, a differentiated selective CDK9 inhibitor in clinical development” (Bioorg Med Chem Lett, 2024)

Key:
[1] = Selectivity index, ratio of IC50 for inhibition of CDK1 (unknown origin) to IC50 for inhibition of CDK9 (unknown origin)
[2] = Selectivity index, ratio of IC50 for inhibition of CDK2 (unknown origin) to IC50 for inhibition of CDK9 (unknown origin)
MV4-11 = assay: Antiproliferative activity against human MV4-11 cells assessed as cell viability; type: functional, cell-based

Row | SMILES | Ratio IC50 [1] | Ratio IC50 [2] | IC50 (MV4-11) [nM]
1 | CC(C)N1CCC(c2cc3c(-c4cnn(CC5CC5)c4)c(Cl)cnc3[nH]2)CC1 | 73.3 | 32.4 | 94.8
2 | c1cc(-c2cnn(CC3CC3)c2)c2cc(C3CCNCC3)[nH]c2n1 | 48.8 | 51.8 | 252
3 | CN1CCC(c2cc3c(-c4cnn(CC5CC5)c4)c(Cl)cnc3[nH]2)CC1 | 35.9 | 11.2 | 35.7
